Reference: patent US9073858B2, “Methods of targeted drug development” (priority 2010, dated 2015)
Where two headings read alike, the source gives them in different places.

What was measured:
MDBK line = test: MTT Cell Proliferation Assay, MDBK line; assay type: cell-based, bovine
Source text: (§1) The following example describes the MTT Cell Proliferation Assay.
(§2) The MTT Cell Proliferation Assay is a colorimetric assay system that measures the reduction of the tetrazolium salt MTT (3-(4,5-dimethylthiazol-2-yl)-2,5-diphenyltetrazolium bromide) into insoluble formazan crystals, produced by the mitochondria of viable cells. […] The color can then be quantified by spectrophotometric means. Among the applications for the method are drug sensitivity, cytotoxicity, response to growth factors, and cell activation. The reduction of tetrazolium salts is now recognized as a safe, accurate alternative to radiometric testing.
(§3) Two replicates on each cell plate and 2 duplicate plates gave 4 individual replicates of each concentration, in each cell line. Concentrations were diluted in 100% DMSO from 25 mM stocks.
(§4) Twelve 96 well plates of each cell line were plated. Plating was done by dislodging cells as in passage protocol, counting on a hemocytometer, re-suspending in standard growth media, and plating using a multichannel pippetor.
(§5) 16 μl of 25 mM stock+34 μl DMSO=8 mM starting concentrations, and serial diluted as with test compounds in same plate. […] Two replicates of each concentrations was run on each cell plate. All compound addition and cell treatments were done using aseptic technique under a laminar flow aseptic hood.
(§6) Control: 0.5% DMSO in treatment media was used as the control.
(§7) MTT dye (Thiazolyl Blue Tetrazolium Bromide, Sigma cat # M5655) stock was prepared in bulk and stored at 4° C. for use: 5 mgs/ml sterile PDS, shielded from light. 4 ul of this stock per 100 uls treatment media per well was used.
(§8) Plates were incubated overnight prior to treatment, with treatment day=Day 0. Compound treatments were prepared prior to washing cells to minimize time cells were dry at room temperature after final aspiration. Compounds were diluted in 100% DMSO in 96 well polypropylene plates:40 μl 25 mM stock+10 μl DMSO=20 mM; 20 μl of 20 mM+30 μl DMSO=8 mM; 20 μl of 8 mM+30 μl DMSO=3.2 mM; 20 μl of 3.2 mM+30 μl DMSO=1.3 mM; 20 μl of 1.3 mM+30 μl DMSO=0.51 mM.
(§9) 5.0 μl/ml were added to treatment media, in sterile, 2.2 ml deep well plates=0.5% dmso final. Ten μl of each dmso concentration was added to 2.0 ml of treatment media and then mixed using a 1200 μl multichannel pipettor. Cell plates were treated from the deep well plates. Treatment media was standard growth media containing 0.5% FBS and standard additions. This reduced FBS concentration allowed for a slower growth rate in cells.
(§10) Media was aspirated from cell plates, and washed with 200 μl/well sterile PBS. Aspirated PBS wash, and cell plates were treated with 200 μl of compound/treatment media per well, and incubated at 37° C., 5% CO2 for 3 days.
(§11) Prior to harvesting, visual observations were made under an inverted microscope. Plates were harvested by: aspirating the growth media; adding back MTT dye/100 μl treatment media; and incubating plates at 37° C. for 1 hour. MTT dye was aspirated. 100 μl/well dmso was added, and then shaken on a Bellco plate shaker for 5 minutes, at 4.5 setting.
(§12) Plates were read in a Tecan Sunrize UV plate reader, at 560 nm. Settings: Read mode, Outside Normal 2 sec; Shake settle time 3 sec. Data is reported as % inhibition, calculated for individual plates using control values from that plate.

EGFR = target: T1, EGFR (Homo sapiens, UniProt P00533); test: EGFR in-cell Western (ICW) screening protocol; assay type: cell-based; parameters: unit not given here; conditions: for ICW Screen: initial screen
T1 construct: endogenous in cells; host or cells: A431 cells (ATCC CRL-1555)
T1 sequence (P00533 25-1210): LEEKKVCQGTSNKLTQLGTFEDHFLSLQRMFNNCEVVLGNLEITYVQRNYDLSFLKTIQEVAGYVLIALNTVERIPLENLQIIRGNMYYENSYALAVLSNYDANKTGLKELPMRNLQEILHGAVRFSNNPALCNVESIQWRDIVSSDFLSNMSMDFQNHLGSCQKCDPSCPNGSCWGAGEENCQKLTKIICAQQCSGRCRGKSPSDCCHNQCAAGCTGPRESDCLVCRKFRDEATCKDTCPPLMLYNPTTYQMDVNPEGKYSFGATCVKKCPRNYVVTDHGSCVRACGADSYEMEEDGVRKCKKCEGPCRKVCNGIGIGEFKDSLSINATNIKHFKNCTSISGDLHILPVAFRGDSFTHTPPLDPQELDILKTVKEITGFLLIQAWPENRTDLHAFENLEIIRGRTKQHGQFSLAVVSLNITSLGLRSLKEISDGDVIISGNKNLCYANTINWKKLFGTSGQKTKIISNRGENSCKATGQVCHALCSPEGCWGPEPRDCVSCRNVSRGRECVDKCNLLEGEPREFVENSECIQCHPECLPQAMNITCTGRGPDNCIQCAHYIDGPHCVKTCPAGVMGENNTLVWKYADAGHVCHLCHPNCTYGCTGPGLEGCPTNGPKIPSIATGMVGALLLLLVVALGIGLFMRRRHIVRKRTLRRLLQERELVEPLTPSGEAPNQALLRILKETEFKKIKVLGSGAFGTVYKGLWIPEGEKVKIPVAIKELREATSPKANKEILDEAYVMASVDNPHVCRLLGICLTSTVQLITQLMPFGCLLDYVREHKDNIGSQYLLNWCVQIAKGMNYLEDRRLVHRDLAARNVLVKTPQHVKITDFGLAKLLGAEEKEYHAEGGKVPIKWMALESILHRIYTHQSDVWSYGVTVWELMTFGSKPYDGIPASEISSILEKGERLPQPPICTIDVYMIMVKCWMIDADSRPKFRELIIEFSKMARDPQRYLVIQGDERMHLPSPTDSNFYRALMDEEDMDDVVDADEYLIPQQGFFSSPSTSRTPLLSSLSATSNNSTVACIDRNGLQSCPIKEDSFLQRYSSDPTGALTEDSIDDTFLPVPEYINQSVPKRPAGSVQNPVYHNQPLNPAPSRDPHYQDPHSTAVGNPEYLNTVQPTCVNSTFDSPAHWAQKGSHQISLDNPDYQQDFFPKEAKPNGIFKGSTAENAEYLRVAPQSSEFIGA
Protocol: The following example describes general EGFR in-cell Western (ICW) screening protocol.
Two cell plates were prepared for each compound plate.
Serum Starvation: The cells were serum starved prior to compound addition. […] The cell plates were incubated at 37° C./5% CO2 for 2 hours.
Prepared compound plates were stored at RT prior to use and at 4° C. long term.
Compound Dilution Plate Preparation: 250 μl of DMEM supplemented with 1 mg/ml BSA (Sigma A3059-10G) was added to the appropriate wells of a 96 well plate to prepare the compound dilution plates. Using a multichannel pipettor, 1.25 μl of compound from the compound plate was transferred into the compound dilution plate.
Compound Addition: The starve media was removed from the cell plates by aspiration. Using a multichannel pipettor, the compound dilution plates were mixed by pipetting up and down three times. 50 μl of mixed, diluted compound was added to each of two rows/columns on each of two cell plates. The cell plates with compound were incubated at 37° C./5% CO2 for 4 hours.
50 μl of 20 or 0 ng/ml EGF was added to the appropriate wells without the removal of compound. The compound and EGF were mixed by pipetting up and down three times.
The plates were incubated at RT for 20 min without shaking. The Fixation Solution was removed by aspiration and the plates washed four times with 200 μl each of Triton Wash Solution (1×PBS, Sigma P3813-10PK, and 0.1% Triton X-100, T8787-50ML) for 5 min with gentle shaking.
The block was removed by aspiration and 50 μl of diluted primary Ab mix was added. The plates were incubated at 4° C. overnight with gentle shaking. The plates were washed five times with 200 μl of PBST (1×PBS, Sigma P3813-10PK, and 0.1% Tween-20, Sigma P9416-50ML) for 5 min each with shaking. 50 μl of diluted secondary Ab mix was added and the plates incubated at RT for 1 h with shaking. The plates were washed 5× with 200 μl of PBST for 5 min each with shaking. One final wash with 200 μl of PBS (Sigma P3813-10PK) for 5 min with shaking was performed prior to scanning.
In some screening assays, the dilution of the secondary Ab conjugates was 1/800 rather than 1/1200.
Plate Scanning: The plates were scanned on an Odyssey Infrared Imaging System from LI-COR Biosciences. The focus offset was set at 3.5 mm and the scanning intensity set at 3 for the 700 channel and 7 for the 800 channel.
Data Analysis: The % of Maximum and % Inhibition values were calculated as follows. 700 Channel=signal for total EGFR (used to control for variation in cell number). 800 Channel=signal for phosphorylated EGFR. 800−EGF=basal level EGFR phosporylation+non-specific signal (no compound). 800+EGF=800−EGF+EGF dependent EGFR receptor phosphorylation (no compound). 700/800com=700 or 800 channel signals with compound. % Maximum={[(800com/700com)−(800−EGF/700−EGF)]/[(800+EGF/700+EGF)−(800−EGF/700−EGF)]}×100%. % Inhibition=100%−(% Maximum).

[1] = tested on: epithelial carcinoma A431 cell line; test: MTT Cell Proliferation Assay, A431 cell line; assay type: cell-based; conditions: for MTT-72 h A431/MDBK (ratio) / MTT (10 Point follow-up) ratio: value in brackets; for MTT-72 h A431/MDBK (ratio): numerically MDBK value over A431 value; for MTT (10 Point follow-up) ratio: numerically MDBK over A431
Source text: as §1, §2, §3, §4, §5, §6, §7, §8, §9, §10, §11, §12

[2] = Bos taurus, MDBK, 72 h, second value of A431/MDBK pair, read-out: MTT-72 h MDBK
[3] = Homo sapiens, A-431, 72 h, 72 h, first value of A431/MDBK pair, read-out: MTT-72 h A431
[4] = Bos taurus, MDBK, 10 point follow-up, second value of pair, read-out: MTT (10 Point follow-up) MDBK
[5] = Homo sapiens, A-431, 10 point follow-up, first value of pair, read-out: MTT (10 Point follow-up) A431

Row | ICW Screen (EGFR) | IC50 [1, 3] | ICW Re-Test (EGFR) | IC50 [1, 5] | IC50 ([1]; 10 point follow-up, first value of pair, read-out: MTT (10 Point follow-up) A431) | IC50 ([1]; 72 h, first value of A431/MDBK pair, read-out: MTT-72 h A431) | Compound | IC50 (MDBK line; [2]) | MTT-72 h A431/MDBK (ratio) ([1]; 72 h) | IC50 (MDBK line; [4]) | MTT (10 Point follow-up) ratio ([1]; 10 point follow-up) | IC50 (MDBK line; 10 point follow-up, second value of pair, read-out: MTT (10 Point follow-up) MDBK) | IC50 (MDBK line; 72 h, second value of A431/MDBK pair, read-out: MTT-72 h MDBK)
1 | 34.62 | 9.39 µM | – | – | – | – | COc1ccc(C(Nc2cc(C)ccn2)c2ccc3cccnc3c2O)c(OC)c1OC (stereo not shown) [compound 10031] | 6.09 µM | 0.65 | – | – | – | –
2 | 49.36 | 1.85 µM | 5.98 | 1.81 µM | – | – | Oc1c(C(Nc2ccccn2)c2ccccc2F)ccc2cccnc12 (stereo not shown) [compound 10033] | 4.62 µM | 2.49 | 4.43 µM | 2.44 | – | –
3 | 27.1 | 12 µM | – | – | – | – | Cc1ccc2ccc(C(Nc3ccccn3)c3ccc(C)c(C)c3)c(O)c2n1 (stereo not shown) [compound 10034] | 7.16 µM | 0.60 | – | – | – | –
4 | 32.12 | 43 µM | – | – | – | – | Cc1cccc(NC(c2ccc(O)cc2)c2ccc3ccc(C)nc3c2O)n1 (stereo not shown) [compound 10037] | 18.2 µM | 0.42 | – | – | – | –
5 | 28.31 | 5.75 µM | – | – | – | – | Cc1ccnc(NC(c2ccc3c(c2)OCO3)c2ccc3cccnc3c2O)c1 (stereo not shown) [compound 10038] | 5.42 µM | 0.94 | – | – | – | –
6 | 45.08 | 2.95 µM | 3.45 | 1.59 µM | – | – | CCc1ccc(C(Nc2ccccn2)c2ccc3cccnc3c2O)cc1 (stereo not shown) [compound 10041] | 2.94 µM | 1.00 | 2.34 µM | 1.47 | – | –
7 | 47.99 | 1.49 µM | −8.06 | 9.62 µM | – | – | O=[N+]([O-])c1ccccc1C(Nc1ccccn1)c1ccc2cccnc2c1O (stereo not shown) [compound 10042] | 1.49 µM | 1.00 | 6.63 µM | 0.69 | – | –
8 | 34.63 | – | – | 5.46 µM | – | – | Cc1cccc(NC(c2cccc(Cl)c2)c2ccc3cccnc3c2O)n1 (stereo not shown) [compound 10043] | – | – | 5.29 µM | 0.97 | – | –
9 | 27.22 | 13.5 µM | – | – | – | – | Cc1ccc2ccc(C(Nc3ccccn3)c3ccc(F)cc3)c(O)c2n1 (stereo not shown) [compound 10045] | 9.85 µM | 0.73 | – | – | – | –
10 | 12.78 | – | – | – | 1.66 µM | – | Oc1c(C(Nc2ccccn2)c2ccc(Cl)cc2Cl)ccc2cccnc12 (stereo not shown) [compound 10046] | – | – | – | 1.87 | 3.1 µM | –
11 | 44.94 | – | 15.3 | 5.46 µM | – | – | Oc1c(C(Nc2ccccn2)c2ccc(Br)cc2)ccc2cccnc12 (stereo not shown) [compound 10048] | – | – | 5.23 µM | 0.96 | – | –
12 | 35.57 | 12.2 µM | – | – | – | – | CCOc1ccccc1C(Nc1ccccn1)c1ccc2ccc(C)nc2c1O (stereo not shown) [compound 10049] | 11.5 µM | 0.94 | – | – | – | –
13 | 32.11 | 5.39 µM | – | – | – | – | C=CCOc1cccc(C(Nc2ccccn2)c2ccc3cccnc3c2O)c1 (stereo not shown) [compound 10050] | 5.35 µM | 0.97 | – | – | – | –
14 | 36.47 | 0.79 µM | – | 0.545 µM | – | – | Oc1c(C(Nc2ccccn2)c2cccc(Cl)c2Cl)ccc2cccnc12 (stereo not shown) [compound 10051] | 1.42 µM | 1.80 | 0.974 µM | 1.79 | – | –
15 | 43.1 | 2.35 µM | 20.95 | 13.8 µM | – | – | C=CCOc1ccc(C(Nc2ccccn2)c2ccc3cccnc3c2O)cc1 (stereo not shown) [compound 10052] | – | – | 9.25 µM | 0.67 | – | –
16 | 32.85 | – | – | 3.98 µM | – | – | Cc1ccnc(NC(c2cccc(OCc3ccccc3)c2)c2ccc3cccnc3c2O)c1 (stereo not shown) [compound 10053] | – | – | 0.44 µM | 0.11 | – | –
17 | 35.84 | 5.47 µM | – | – | – | – | Cc1ccc(C(Nc2cccc(C)n2)c2ccc3cccnc3c2O)cc1 (stereo not shown) [compound 10054] | 5.46 µM | 1.00 | – | – | – | –
18 | 28.09 | – | – | – | – | 12.1 µM | Cc1cccc(NC(c2ccc3c(c2)OCO3)c2ccc3cccnc3c2O)n1 (stereo not shown) [compound 10055] | – | 0.68 | – | – | – | 8.17 µM
19 | 34.16 | 5.38 µM | 44.46 | – | – | – | Cc1cccc(NC(c2ccc(F)cc2)c2ccc3cccnc3c2O)n1 (stereo not shown) [compound 10056] | 5.18 µM | 0.96 | – | – | – | –
20 | 28.52 | 5.14 µM | – | 1.08 µM | – | – | Cc1cccc(NC(c2ccc(Cl)cc2)c2ccc3cccnc3c2O)n1 (stereo not shown) [compound 10058] | 5.83 µM | 1.13 | 1.68 µM | 1.56 | – | –
21 | 9.336 | – | – | 1.56 µM | – | – | Oc1ccc(Br)c(C(Nc2ccccn2)c2ccc3cccnc3c2O)c1 (stereo not shown) [compound 10064] | – | – | 2.01 µM | 1.29 | – | –
